Where “and” joins values, the source holds several entries; their conditions need not be identical. Equal entries are not always repeated. Inconclusive results and toxic doses are left out. Bridge positions count the residues as written; N and C are the ends. Square brackets hold non-standard residues; d marks the D form. Peptide text beside a SMILES is read from it. NMeV = CN[CH](C(=O)O)C(C)C; Sar = CNCC(=O)O
Test system: BDF1 mice, B16 melanoma ip, median survival T/C
Assay: NCI In Vivo Anticancer Drug Screen. Data for tumor model B16 Melanoma (intraperitoneal) in B6D2F1 (BDF1) mice
Details: endpoint: median survival time, higher = longer survival
Procedure, shortened: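 Vehicle-treated animals serve as the reference (C); treated animals (T) are scored for survival or tumor size after tumor transplantation.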

[1] = dose: 6.25 mg/kg/injection, schedule: Q01DX009 (ip), vehicle: saline with Tween-80
[2] = dose: 12.5 mg/kg/injection, schedule: Q01DX009 (ip), vehicle: saline with Tween-80
[3] = dose: 25.0 mg/kg/injection, schedule: Q01DX009 (ip), vehicle: saline with Tween-80
[4] = dose: 100.0 mg/kg/injection, schedule: Q01DX009 (ip), vehicle: saline with Tween-80
[5] = dose: 200.0 mg/kg/injection, schedule: Q01DX009 (ip), vehicle: saline with Tween-80
[6] = dose: 100.0 mg/kg/injection, schedule: Q01DX009 (ip), vehicle: Klucel (hydroxypropylcellulose) (HPC)
[7] = dose: 25.0 mg/kg/injection, schedule: Q01DX009 (ip), vehicle: saline
[8] = dose: 50.0 mg/kg/injection, schedule: Q01DX009 (ip), vehicle: saline
[9] = dose: 100.0 mg/kg/injection, schedule: Q01DX009 (ip), vehicle: saline
[10] = dose: 12.5 mg/kg/injection, schedule: Q01DX009 (ip), vehicle: saline
[11] = dose: 3.13 mg/kg/injection, schedule: Q01DX009 (ip), vehicle: saline with Tween-80
[12] = dose: 6.25 mg/kg/injection, schedule: Q01DX009 (ip), vehicle: saline

In the case of Cc1ccc(NC(=O)CCl)cc1C, the T/C [1] is reported as 102 % of control, the T/C [2] is reported as 100 % of control and the T/C [3] is reported as 95 % of control. The T/C [4] was 95 % of control and the T/C [5] was 95 % of control.
For NC(C(=O)O)c1ccc(CBr)cc1 (stereo unspecified), the T/C (dose: 12.5 mg/kg/injection, schedule: Q01DX009 (ip), vehicle: acid diluted with saline) was 152 % of control, the T/C (dose: 25.0 mg/kg/injection, schedule: Q01DX009 (ip), vehicle: acid diluted with saline) was 157 % of control and the T/C (dose: 100.0 mg/kg/injection, schedule: Q01DX009 (ip), vehicle: acid diluted with saline) was 152 % of control. The T/C (dose: 200.0 mg/kg/injection, schedule: Q01DX009 (ip), vehicle: acid diluted with saline) was 157 % of control.
S=C(NC1CCCCC1)NC1CCCCC1 was tested, and the T/C [4] was 95 % of control, the T/C [5] was 114 % of control and the T/C (dose: 400.0 mg/kg/injection, schedule: Q01DX009 (ip), vehicle: saline with Tween-80) was 90 % of control.
In the case of CC1=NN(c2cccc(Cl)c2)C(=O)C1, the T/C (dose: 50.0 mg/kg/injection, schedule: Q01DX009 (ip), vehicle: saline with Tween-80) is reported as 108 % of control, the T/C [4] is reported as 109 % of control and the T/C [5] is reported as 101 % of control.
With COP12(OCCO1)SC(C(F)(F)F)=C(C(F)(F)F)S2 the T/C [2] was 100 % of control and the T/C [3] was 104 % of control.
For Nc1ccc(S(=O)(=O)Nc2cccc3ccccc23)cc1, the T/C [6] was 100 % of control, the T/C (dose: 200.0 mg/kg/injection, schedule: Q01DX009 (ip), vehicle: Klucel (hydroxypropylcellulose) (HPC)) was 100 % of control and the T/C (dose: 400.0 mg/kg/injection, schedule: Q01DX009 (ip), vehicle: Klucel (hydroxypropylcellulose) (HPC)) was 96 % of control.
C[C@@H]1C[C@](O)([C@@H](C)Cl)C(=O)O[C@@H]2CCN3CC=C(COC(=O)[C@]1(C)O)[C@H]23 was tested, and the T/C (dose: 5.5 mg/kg/injection, schedule: Q01DX009 (ip), vehicle: saline) was 97 % of control, the T/C (dose: 11.0 mg/kg/injection, schedule: Q01DX009 (ip), vehicle: saline) was 90 % of control and the T/C (dose: 22.0 mg/kg/injection, schedule: Q01DX009 (ip), vehicle: saline) was 111 % of control.
For Cc1ccc(Cl)cc1NC(=O)c1cccc(C(=O)Nc2cc(Cl)ccc2C)c1, the T/C (dose: 50.0 mg/kg/injection, schedule: Q01DX009 (ip), vehicle: Klucel (hydroxypropylcellulose) (HPC)) was 96 % of control and the T/C [6] was 93 % of control.
In the case of COc1ccc([I+]c2cccc(Cl)c2)cc1Cl, the T/C [1] is reported as 112 % of control, the T/C [2] is reported as 112 % of control and the T/C [3] is reported as 104 % of control.
With CCCNCCN the T/C [7] was 109 % of control, the T/C [8] was 116 % of control and the T/C [9] was 96 % of control.
In the case of Nc1ncnc2c1ncn2C1OCC(O)C1O (stereo unspecified), the T/C [10] is reported as 101 % of control, the T/C [7] is reported as 108 % of control and the T/C [8] is reported as 116 % of control.
O=c1cc(-c2ccccc2)[nH]c(-c2ccccc2)c1 was tested, and the T/C (dose: 8.0 mg/kg/injection, schedule: Q01DX009 (ip), vehicle: saline with Tween-80) was 95 % of control and the T/C (dose: 18.0 mg/kg/injection, schedule: Q01DX009 (ip), vehicle: saline with Tween-80) was 97 % of control.
In the case of CC(=O)O.[Pb], the T/C (dose: 1.56 mg/kg/injection, schedule: Q01DX009 (ip), vehicle: saline with Tween-80) is reported as 95 % of control, the T/C [11] is reported as 95 % of control and the T/C [1] is reported as 95 % of control. For the same compound, the T/C [2] was 88 % of control.
For CN(C)/C=C(/C#N)C(=O)N1CCCC1, the T/C (dose: 37.5 mg/kg/injection, schedule: Q04DX003 (ip), vehicle: saline) was 95 % of control, the T/C (dose: 75.0 mg/kg/injection, schedule: Q04DX003 (ip), vehicle: saline) was 88 % of control and the T/C (dose: 150.0 mg/kg/injection, schedule: Q04DX003 (ip), vehicle: saline) was 100 % of control.
With COC(=O)C1=C(C)NC(=O)NC1c1ccc(N(CCCl)CCCl)c(OC)c1 (stereo unspecified) the T/C (dose: 1.56 mg/kg/injection, schedule: Q01DX009 (ip), vehicle: Klucel (hydroxypropylcellulose) (HPC)) was 154 % of control, the T/C (dose: 3.12 mg/kg/injection, schedule: Q01DX009 (ip), vehicle: Klucel (hydroxypropylcellulose) (HPC)) was 178 % of control and the T/C [11] was 176 % of control. The T/C [1] was 189 % of control.
CC(N)Cc1cn(C)c2ccccc12 (stereo unspecified) was tested, and the T/C [12] was 122 % of control, the T/C [10] was 105 % of control and the T/C [7] was 102 % of control. The T/C [8] was 105 % of control and the T/C [9] was 88 % of control.
For CCCCCCCCCCCCCCCCCC(=O)[O][Hg][c]1ccccc1, the T/C [1] was 97 % of control and the T/C [2] was 105 % of control.
In the case of OC(c1ccccc1)(c1ccccc1)C1CC1c1ccncc1 (stereo unspecified), the T/C [10] is reported as 113 % of control, the T/C [7] is reported as 95 % of control and the T/C [8] is reported as 102 % of control. For the same compound, the T/C [9] was 107 % of control.
CC(C)C1NC(=O)C(N)C(C)OC(=O)C(C(C)C)N(C)C(=O)CN(C)C(=O)C2CCCN2C1=O (stereo unspecified) (tested in a mixture with another compound) (H-TVP[Sar][NMeV]; ester 1-C; configuration not given here) was tested, and the T/C (dose: 0.22 mg/kg/injection, schedule: Q01DX009 (ip), vehicle: water) was 156 % of control, the T/C (dose: 25.0 micrograms/kg/injection, schedule: Q01DX009 (ip), vehicle: saline + alcohol) was 107 % of control and the T/C (dose: 50.0 micrograms/kg/injection, schedule: Q01DX009 (ip), vehicle: saline + alcohol) was 122 % of control. The T/C (dose: 75.0 micrograms/kg/injection, schedule: Q04DX003 (ip), vehicle: saline + alcohol) was 107 % of control and 114 % of control, the T/C (dose: 150.0 micrograms/kg/injection, schedule: Q04DX003 (ip), vehicle: saline + alcohol) was 116 % of control and the T/C (dose: 200.0 micrograms/kg/injection, schedule: Q01DX009 (ip), vehicle: saline + alcohol) was 150 % of control. For the same compound, the T/C (dose: 300.0 micrograms/kg/injection, schedule: Q04DX003 (ip), vehicle: saline + alcohol) was 100 % of control, the T/C (dose: 400.0 micrograms/kg/injection, schedule: Q01DX009 (ip), vehicle: saline + alcohol) was 124 % of control and the T/C (dose: 1200.0 micrograms/kg/injection, schedule: Q04DX003 (ip), vehicle: saline + alcohol) was 93 % of control and 107 % of control.
With CCc1c2cc(OC)c(OC)cc2cc2c3cc(OC)c(OC)cc3cc[n+]12 (tested in a mixture with another compound) the T/C (dose: 4.8 mg/kg/injection, schedule: Q01DX009 (ip), vehicle: saline) was 98 % of control, the T/C (dose: 9.5 mg/kg/injection, schedule: Q01DX009 (ip), vehicle: saline) was 98 % of control and the T/C (dose: 19.0 mg/kg/injection, schedule: Q01DX009 (ip), vehicle: saline) was 99 % of control. For the same compound, the T/C (dose: 37.5 mg/kg/injection, schedule: Q01DX009 (ip), vehicle: saline with Tween-80) was 117 % of control, the T/C (dose: 38.0 mg/kg/injection, schedule: Q01DX009 (ip), vehicle: saline) was 95 % of control and the T/C (dose: 75.0 mg/kg/injection, schedule: Q01DX009 (ip), vehicle: saline with Tween-80) was 108 % of control. The T/C (dose: 150.0 mg/kg/injection, schedule: Q01DX009 (ip), vehicle: saline with Tween-80) was 98 % of control.
For On1cnc(=S)c2[nH]cnc21, the T/C (dose: 100.0 mg/kg/injection, schedule: Q01DX009 (ip), vehicle: saline sonified) was 106 % of control, the T/C (dose: 200.0 mg/kg/injection, schedule: Q01DX009 (ip), vehicle: saline sonified) was 104 % of control and the T/C (dose: 400.0 mg/kg/injection, schedule: Q01DX009 (ip), vehicle: saline sonified) was 90 % of control.
CN(C)C1CC1c1ccccc1 (stereo unspecified) was tested, and the T/C (dose: 3.12 mg/kg/injection, schedule: Q01DX009 (ip), vehicle: saline) was 92 % of control, the T/C [12] was 107 % of control and the T/C [10] was 97 % of control. The T/C [7] was 100 % of control, the T/C [8] was 105 % of control and the T/C [9] was 98 % of control.
With O=c1[nH]c(=O)n2n1CC(Br)C(Br)C2 (stereo unspecified) the T/C (dose: 100.0 mg/kg/injection, schedule: Q04DX003 (ip), vehicle: saline with Tween-80) was 97 % of control, the T/C (dose: 200.0 mg/kg/injection, schedule: Q04DX003 (ip), vehicle: saline with Tween-80) was 102 % of control and the T/C (dose: 400.0 mg/kg/injection, schedule: Q04DX003 (ip), vehicle: saline with Tween-80) was 110 % of control.
In the case of CC1(C)N=C(N)N=C(N)N1c1cccc(CCCCOc2ccccc2)c1, the T/C [11] is reported as 95 % of control, the T/C (dose: 3.13 mg/kg/injection, schedule: Q04DX003 (ip), vehicle: saline with Tween-80) is reported as 109 % of control and the T/C [1] is reported as 102 % of control. For the same compound, the T/C (dose: 6.25 mg/kg/injection, schedule: Q04DX003 (ip), vehicle: saline with Tween-80) was 109 % of control, the T/C [2] was 102 % of control and the T/C (dose: 12.5 mg/kg/injection, schedule: Q04DX003 (ip), vehicle: saline with Tween-80) was 107 % of control.
With COc1cc2oc(=O)ccc2cc1[C@@H]1OC(=O)C2(C)O[C@@H]12 (stereo partly specified) the T/C (dose: 0.63 mg/kg/injection, schedule: Q01DX009 (ip), vehicle: distilled water + Tween-80) was 103 % of control, the T/C (dose: 1.25 mg/kg/injection, schedule: Q01DX009 (ip), vehicle: distilled water + Tween-80) was 95 % of control and the T/C (dose: 5.0 mg/kg/injection, schedule: Q01DX009 (ip), vehicle: distilled water + Tween-80) was 102 % of control. For the same compound, the T/C (dose: 10.0 mg/kg/injection, schedule: Q01DX009 (ip), vehicle: distilled water + Tween-80) was 97 % of control.

Reference: PubChem BioAssay AID192 (DTP/NCI, 2004)
